Measurements published in patent publication US9963441B2, “Histone demethylase inhibitors” (CELGENE QUANTICEL RESEARCH, INC., priority 2013, dated 2018).

Target: T1, JMJD2C (Homo sapiens, UniProt Q9H3R0)
T1 construct: purchased BPS Bioscience 50105
T1 sequence (Q9H3R0 2-372): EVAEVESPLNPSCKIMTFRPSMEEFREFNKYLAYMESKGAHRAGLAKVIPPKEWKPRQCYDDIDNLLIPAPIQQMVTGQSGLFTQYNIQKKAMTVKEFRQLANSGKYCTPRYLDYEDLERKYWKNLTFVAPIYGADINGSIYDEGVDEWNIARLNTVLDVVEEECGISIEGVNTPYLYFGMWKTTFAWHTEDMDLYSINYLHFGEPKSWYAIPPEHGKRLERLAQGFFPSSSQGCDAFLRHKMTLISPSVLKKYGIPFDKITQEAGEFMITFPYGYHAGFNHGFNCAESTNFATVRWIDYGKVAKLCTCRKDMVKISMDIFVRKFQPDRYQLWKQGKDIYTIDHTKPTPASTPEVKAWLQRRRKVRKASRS
Experiment: JMJD2C in vitro enzyme inhibition assay (TR-FRET)
Type: biochemical
Method: This assay determines the ability of a test compound to inhibit Jarid1A, Jarid1B, JMJD2C, and JMJD2A demethylase activity. […] Baculovirus expressed JMJD2C (GenBank Accession #BC143571, AA 2-372) was purchased from BPS Bioscience (Cat#50105).
The ability of test compounds to inhibit the activity of JMJD2C was determined in 384-well plate format under the following reaction conditions: 0.3 nM JMJD2C, 300 nM H3K9me3-biotin labeled peptide (Anaspec cat #64360), 2 μM alpha-ketoglutaric acid in assay buffer of 50 mM HEPES, pH7.3, 0.005% Brij35, 0.5 mM TCEP, 0.2 mg/ml BSA, 50 μM sodium L-ascorbate, and 2 μM ammonium iron(II) sulfate. Reaction product was determined quantitatively by TR-FRET after the addition of detection reagent Phycolink Streptavidin-allophycocyanin (Prozyme) and Europium-anti-di-methylated histone H3 lysine 9 (H3K9me2) antibody (PerkinElmer) in the presence of 5 mM EDTA in LANCE detection buffer (PerkinElmer) at a final concentration of 50 nM and 1 nM, respectively.
The assay reaction was initiated by the following: 2 μl of the mixture of 900 nM H3K9me3-biotin labeled peptide and 6 μM alpha-ketoglutaric acid with 2 μl of 11-point serial diluted inhibitor in 3% DMSO were added to each well of the plate, followed by the addition of 2 μl of 0.9 nM JMJD2C to initiate the reaction. […]

`Cn1cnc(-c2cc(-c3nn[nH]n3)ccn2)c1-c1ccc(Cl)c(OCc2ccccc2)c1` [Example 161, 2-[5-(4-chloro-3-phenylmethoxyphenyl)-1-methylimidazol-4-yl]-4-(2H-tetrazol-5-yl)pyridine] gave an IC50 of 1 to 10 µM.
